Measured values published in patent US20100247461A1, “ANTI-INFLAMMATORY COMPLEXES” (Signum Biosciences, Inc., priority 2009, published 2010).
Converted amounts (≈) assume the structure as drawn.

Key:
[1] = test system: TPA-treated mouse ears (edema, ear thickness); test: TPA mouse ear model of inflammation - edema inhibition; type: in vivo; conditions: TPA-treated mouse ear
Experimental: In brief, mice were sedated and their ears were treated with 1.2 μg/20 uL TPA (i.e., tetradecanoylphorbol-13-acetate). After 5 minutes, we dosed these TPA-treated ears with a single 8 μg/20 μL dose, a 2 μg/20 μL dose, or both doses, of provided complexes. After 24 hours, the mice were sacrificed and edema was measured by taking micrometer readings of each ear. […] These values were corrected for the thickness of normal, non TPA-treated mouse ears of littermate controls.

[2] = test system: TPA-treated mouse ears (erythema, Δa* redness); test: TPA mouse ear model of inflammation - erythema inhibition; type: in vivo; conditions: topical, 24 hours
Experimental: The protocol for measuring erythema inhibition by provided complexes was developed in-house by utilizing the CR-400 chroma meter from Konica Minolta (2). This instrument was used to measure the Δa*redness value from 6 mm biopsy punches taken 24 hours post TPA/compound treatment as described in the edema inhibition section above. […] These values were corrected for the Δa* value of non TPA-treated mouse ears of littermate controls.

[3] = test system: MPO (myeloperoxidase), neutrophil marker; test: TPA mouse ear model of inflammation - MPO inhibition (dermal neutrophil infiltration); type: in vivo; conditions: TPA-treated mouse ear
Experimental: Briefly, we homogenized 6mm biopsy punches taken from both compound-treated ears as well as TPA-treated and non-treated control groups. We quantitated the levels of MPO by a colorimetric reaction that was measured spectrophotometrically. The percent inhibition of neutrophil infiltration by each complex was determined by comparing the average MPO levels in the presence and absence of these compounds. The calculation for percent inhibition of MPO was determined similar to that as described for calculating the percent edema inhibition, see the Edema Inhibition protocol, supra.

neutrophils = test: Inhibition of oxidative burst from neutrophils (fMLP-induced superoxide release); type: cell-based; conditions: Neutrophil, reduction of superoxide formation, fMLP 0.2 μM, 0 to 100 μM compound; read-out: ED50 Respiratory Burst
Experimental: During inflammation, neutrophils produce and release superoxide ions, otherwise known as oxidative burst response, causing cytotoxicity. […] The superoxide release assay is based on published protocols (Goldstein et al. (1975). J. Clin. Invest. 56(5): 1155-63). Briefly, cells were pre-incubated for 10 min at 37° C. with a mixture of cytochrome c (75 μM final concentration), cytochalasin B (5 μg/ml) with or without superoxide dismutase (SOD) (10 μg/ml) and with or without AFC, AFC-Calcium complex, and AFC-Strontium complex (ranging from 0 to 100 μM). To initiate O2^− release, fMLP (0.2 μM) was added the cells are incubated for 10 min at 37° C. Samples were then placed on ice for 5 min and subsequently centrifuged at 3,000 rpm at 4° C. The supernatant was then analyzed by spectrophotometric measurement at 550 and 556.5 nm. The ED50 values for the reduction of superoxide formation, obtained with AFC, AFC-Calcium complex, and AFC-Strontium complex are depicted in Table 2.

[4] = test system: Propionibacterium acnes (strain ATCC 6919); test: Inhibition of Propionibacterium acnes growth; type: cell-based; conditions: Cutibacterium acnes, ATCC6919, 72 h, 72 hours, anaerobic, absorbance 600 nm, 1×10^6 CFU per mL; read-out: IC50 (inhibition of P. acnes growth)
Experimental: The assay for the inhibition of growth of Propionibacterium acnes bacteria is described elsewhere (Nakatsuji et al., J Invest Dermatol, 2009, 129: 2480-2488). In brief, the strain ATCC 6919 of P. acnes (American Type Culture Collection, Manassas, Va.) was cultured on Brucella agar (R01254, Remel, Lenexa, Kans.) supplemented with 5% (v/v) defibrinated sheep blood, vitamin K (5 mg/ml, Remel, Lenexa, Kans.), and hemin (50 mg/ml, Remel, Lenexa, Kans.), under an anaerobic condition using Gas-Pak (BD, Sparks, Md.) at 37° C. A single colony was inoculated in Reinforced Clostridium Medium (Oxford, Hampshire, England) and cultured at 37° C. under the anaerobic condition. Each of the inventive complexes—AFC-Sr, AFC-Ag and AFC-Zn as well as AFC were dissolved in 100% (v/v) DMSO. Samples of each inventive complex, AFC and a solution of benzoyl peroxide (“BPO”) were then each incubated with an inoculum of P. acnes at a concentration of 1×10^6 CFU per mL in Reinforced Clostridium Medium in a 96-well microplate (100 μL per well) under anaerobic conditions for 72 hours. Samples of each were tested at final concentrations per well of 0.25 μg/mL, 0.5 μg/mL, 1.0 μg/mL, 1.95 μg/mL, 3.9 μg/mL, 7.8 μg/mL, 15.625 μg/mL, 31.25 μg/mL, 62.5 μg/mL, 125 μg/mL, 250μg/mL, and 500 μg/mL. A control well received only 5% (v /v) of DMSO in place of a sample of an inventive complex. After 72 hours incubation under anaerobic conditions, the P. acnes cultures in the 96-well microplate were mixed well and then absorbance readings at 600 nm were taken to determine bacterial growth. […] Growth curves of P. acnes determined for BPO, AFC, AFC-Sr, AFC-Ag and AFC-Zn are depicted in FIG. 3.

[5] = test system: mouse skin reepithelialization; test: Mouse wound healing model - skin reepithelialization; type: in vivo
Text: The healing of wounded skin is mediated by epidermal reepithelialization that requires keratinocyte migration. Glucocorticoids are known to inhibit wound healing (Ehrlich et al., Proc Soc Exp Biol Med, 1971, 137: 936-938; Leibovich et al., Am J Pathol, 1975, 78, 71-100). […] The methods for studying mouse skin reepithelialization using both partial and full thickness mouse wound healing models have been described elsewhere (Kim et al. Wound Repair Regen, 2001, 9: 386-390). In brief, for partial thickness wounds, a 3 mm-diameter circle of epidermis is removed from the ventral auricle. The resulting wound is cleansed and dressed with an occlusive polyurethane film. The mouse ears are excised on days 3, 5, 8, and 11 post-operation and fixed in 10% buffered formalin. Following day 8 post-operation, sampling of treated mice is performed to determine completion of healing. For full thickness wounds, mice heads are shaved and depilated prior to excising the skin. The cleaned and dressed wounds are harvested and fixed at days 3, 5, 8 and 10 and fixed in 10% buffered formalin.

[6] = test system: TPA-treated mouse ears (edema, ear thickness); test: TPA mouse ear model of inflammation - edema inhibition; type: in vivo; conditions: topical, 24 hours
[7] = at the dose tested, AFC oil n=1, data not shown

**Q.** Which results are given for CC(=O)N[C@@H](CSC/C=C(\C)CC/C=C(\C)CCC=C(C)C)C(=O)O [AFC, N-acetyl-S-farnesyl-L-cysteine, reference compound]?
**A.** inhibition of edema [1, 7]: 56.35%; ED50 for edema inhibition ([1]; topical, listed as AFC oil): 54.8 mM; % Erythema Inhibition in the Mouse Ear Inflammation Assay (4% concentration) [2]: ++ (“++” indicates a range of 20-40%); inhibition of neutrophil infiltration [3, 7]: 55.90%; ED50 in the MPO assay ([3]; several concentrations, inhibitory activity curves): 651 μg/ear; % MPO Inhibition in the Mouse Ear Inflammation Assay (4% concentration) ([3]; topical, 4% concentration, 24 hours): ++ (“++” indicates a range of 40-80%); ED50 value for inhibiting neutrophil infiltration ([3]; topical, listed as AFC oil): 38.8 mM; EC50 (neutrophils): 0.0433 mM; IC50 [4]: 12.9 µg/mL (≈ 35.1 µM); effect on mouse skin reepithelialization of wounds [5]: no effects; % Edema Inhibition in the Mouse Ear Inflammation Assay (4% concentration) [6]: +++ (“+++” indicates >50% inhibition of edema)
